“And” between values parts separate entries of the source, which are not always exact repeats. Identical values can stand only once. Like-named read-outs stand apart in the source and are kept apart here. Marks after values point to notes of the source that are not given here.
Columns and labels:
[1] = system: Human epidermal keratinocytes cells (HPEKs), 3D micro-epidermis; assay: 3D micro-epidermis model (EpiScreen): epidermis size, toxicity, dose response, classification; format: cell-based; conditions: for Dose in response: variation of protein expression at 3, 10, 30 nM (EGFRi) or 3, 10, 30, 100 nM (VEGFRi); for Dose in response / Dose/response: markers in brackets; for Dose/response: supplementary table, per run (1st or 2nd Run); for effect on desmoglein-1, involucrin and filaggrin expression (dose dependence): 3, 10, 30 nM;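 on all read-outs here: keratinocytes on micropatterned discs in high-calcium medium, drug exposure for three days, then fixation and confocal high-content imaging of actin, nuclei and a marker, vehicle DMSO-matched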
[2] = system: desmoglein-1 (DSG1); assay: 3D micro-epidermis model (EpiScreen): desmoglein-1 immunostaining; format: cell-based, human; conditions: for activation at 0.01 µM: 10 nM, read-out: DSG 10 nM; for DSG-1 expression: Table 1 summary
Protocol: (§1) To assess the effects of such therapy molecules on the epidermis, keratinocytes were grown in the presence of kinase inhibitors during 3 days with high calcium concentration to induce keratinocyte differentiation and generate a 3D-stratified differentiated epidermis. Drug impact on the epidermis development was assessed via different keratinocyte markers including: • Ki-67, an universally expressed protein among proliferating cells and absent in the quiescent cells; • Filaggrin, a filament-associated protein that binds to keratin fibers and is a marker of terminal differentiation; • Desmoglein-1, a component of desmosomes and differentiation marker expressed in all epidermal layer above the basal layer; and • Involucrin, an early differentiation marker expressed in the spinous and granular layers and a protein precursor of the epidermal cornified envelope.
(§2) Human epidermal keratinocytes cells (HPEKs) from a juvenile donor (CellnTec, Switzerland) are cultured in flasks in proliferation medium. Keratinocytes are seeded at passage 6 into EpiScreen™ (Abzena, Cambridge, UK) plates containing collagen 1 coated disc micropatterns (CYTOO, Grenoble, France). Four hours later, unattached cells are washed off and a high calcium medium is added to induce keratinocytes differentiation. The day after, keratinocytes are treated with screening compounds, and Trichostatin A is added at 0.3 μM as an internal positive control. After three days of treatment, micro-epidermises are fixed with a formalin solution 10% for 30 minutes, then permeabilized with 0.1% Triton. Several immunostainings are performed: actin (Acti-Stain 555, PHDH1, Cytoskeleton), nuclei (Hoechst, H3570, Invitrogen), and one biomarker of interest per well either anti-involucrin (HPA055211, Sigma), anti-filaggrin (HPA030189, Sigma) or anti-desmoglein-1 (HPA022128, Sigma). Antibodies are added overnight at 4° C. before staining with secondary antibody, anti-rabbit 488 (711-545-152, Jackson) for 2 hours at room temperature.
(§3) Images of each well are acquired with the Operetta HCS platform (Perkin Elmer, Waltham, MA, USA) using a ×10 objective in confocal mode in eight z-planes from 2 μm to 44 μm in steps of 6 μm in each of the 3 channels: actin, nuclei, and one biomarker of interest. The first step of the image analysis consists in detecting micro-epidermis structures on the first z-plane by segmenting the actin staining. Micro-epidermis structures are validated based on several area and roundness min and max criteria. Then, the area of each biomarker staining is measured inside the valid micro-epidermis masks through each z-plane. For all homogeneous biomarker staining, their intensity through the different planes is measured.
(§4) The actin network of each micro-epidermis is analyzed in each z-plane in order to determine the average 3D structure edges. The biomarker intensity is measured in each z-plane for each structure, and then averaged with the other results generated in the same well. Based on the data generated in the two previous steps, an average 3D reconstruction image is generated. It consists of a meshwork that delimits the structure edges, and a color scaled volume that corresponds to the biomarkers distribution and expression.
The effect of 8 oncology molecules, selected from first generation EGFRi and pan-kinase inhibitors which mostly target VEGFR and second and third generation therapies targeting main mutations relating to first generation treatment resistance, were assessed in vitro using a 3D micro-epidermis model. The drug incubation concentrations (3, 10, 30, 100 nM) were selected to reflect the clinically relevant (unbound) drug exposures (Table 2). The drug impact was assessed by analysis of tissue size and keratinocyte proliferation using Ki-67 staining and keratinocyte differentiation using filaggrin, desmoglein-1 and involucrin staining. […]

[3] = system: involucrin (IVL); assay: 3D micro-epidermis model (EpiScreen): involucrin immunostaining; format: cell-based, human; conditions: for IVL expression: Table 1 summary
Protocol: as §1, §2, §3, §4
The effect of 8 oncology molecules, selected from first generation EGFRi and pan-kinase inhibitors which mostly target VEGFR and second and third generation therapies targeting main mutations relating to first generation treatment resistance, were assessed in vitro using a 3D micro-epidermis model. […] The drug impact was assessed by analysis of tissue size and keratinocyte proliferation using Ki-67 staining and keratinocyte differentiation using filaggrin, desmoglein-1 and involucrin staining.
Size of the epidermis and the expression of the protein junction desmoglein-1 (DSG1), involucrin (IVL) and filaggrin (FLG) was assessed by immunostaining and compared to untreated control. […]

[4] = system: filaggrin (FLG); assay: 3D micro-epidermis model (EpiScreen): filaggrin immunostaining; format: cell-based, human; conditions: for FLG expression: Table 1 summary;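 on all read-outs here: human primary epidermal keratinocytes differentiated in high calcium into 3D micro-epidermises, compound-treated for three days, imaged by confocal high-content microscopy, filaggrin staining intensity quantified within actin-segmented structures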
[5] = system: desmoglein-1 (DSG1); assay: 3D micro-epidermis model (EpiScreen): desmoglein-1 immunostaining; format: cell-based, human; conditions: 10 μM; supplementary data; Tox = toxic
[6] = cited from earlier work; for Cmax: maximal plasma concentration after a single daily-recommended dose, human; for Unbound fraction: unbound to plasma protein; for Unbound concentration: unbound plasma concentration, identified or calculated from Cmax and unbound fraction
[7] = most frequent cutaneous adverse reaction reported by the FDA Adverse Event Reporting System; cited from earlier work
[8] = system: SkinEthic Reconstructed Human Epidermis (RHE); assay: Skin barrier function: trans-epidermal water loss (TEWL) on reconstructed human epidermis; format: cell-based; conditions: SDS 0.5% topical
Protocol: The effect of drugs on the skin barrier function was assessed by measuring trans-epidermal water loss (TEWL) rates on SkinEthicTM Reconstructed Human Epidermis (RHE) model (Episkin, Lyon, France) using Tewitro® TW 24 (Courage+Khazaka electronic GmbH, Köln, Germany). This instrument allows 24 simultaneous measurements on RHE. TEWL was analyzed at 33° C. in an incubator. […] Petrolatum, a highly hydrophobic hydrocarbon, water-repelling and insoluble in water was used to block water evaporation at the RHE surface (negative control). […] DMSO was used in the same proportion in the vehicle. SkinEthicTM RHE (Episkin, Lyon, France), is an in vitro reconstructed human epidermis from normal human keratinocytes cultured on an inert polycarbonate filter at the air-liquid interface, in a chemically defined medium. This model exists at different stages of maturity. This model is histologically similar to in vivo human epidermis. See […].com/SkinEthic%20RHE. The Tewitro® TW 24 is a device that measures water evaporation from cultured tissue sets (wells in a plate with medium) in up to 24 wells simultaneously. See https://www.courage-[…].

[9] = Table 1 summary of drug effect on epidermis
[10] = Table 1 summary, pro-differentiation / pro-proliferation
[11] = Table 3, 30 nM (EGFRi) or 100 nM (VEGFRi), 3 days, vs untreated control, superscript = significance footnote
[12] = Table 3, pro-proliferation or pro-differentiation
[13] = Homo sapiens, 72 h, supplementary data
[14] = concentration (afatinib 3, 10, 30 nM; pan-kinase inhibitors 100 nM)
[15] = supplementary data, two runs, Tox = toxic
[16] = Homo sapiens, 72 h, 10 nM, supplementary data, two runs, read-out: FLG 10 nM
[17] = 100 nM, supplementary data, two runs, Tox = toxic

Compound	Toxicity at 1 μM ([1]; 1 μM, micro-epidermis)	Epidermis size [1, 9]	Classification [1, 10]	Epidermis size [1, 11]	Classification [1, 12]	Dose in response ([1]; Table 3)	Dose/response [1]	activation at 0.01 µM [2, 13]	DSG-1 expression [2]	IVL 10 nM ([3]; supplementary data, two runs)	IVL 10 μM [3, 15]	IVL expression [3]	FLG 10 μM [4, 15]	FLG expression [4]	DSG 10 μM [5]	Cmax [6]	Unbound fraction [6]	Major Skin Effect [7]	effect on desmoglein-1, involucrin and filaggrin expression (dose dependence) [1]	activation at 0.01 µM [4, 16]	also measured
CNC(=O)c1cc(Oc2ccc(NC(=O)Nc3ccc(Cl)c(C(F)(F)F)c3)cc2)ccn1 [Sorafenib]	Yes	Decreased	Pro-proliferation	Decreased^2	Pro-	No	No	-8%	Unchanged	6%	Tox	Unchanged	Tox	Decreased	Tox	8180 nM	0.29%	Rash			desmoglein-1 expression [2, 14]: do not impact; involucrin expression [3, 14]: do not impact; activation at 0.01 µM ([4]; Homo sapiens, 72 h, read-out: FLG 10 nM, 10 nM, supplementary data, two runs): -22%
CS(=O)(=O)CCNCc1ccc(-c2ccc3ncnc(Nc4ccc(OCc5cccc(F)c5)c(Cl)c4)c3c2)o1 [Lapatinib]		Decreased	Pro-differentiation	Unchanged^4	Pro-	Yes	Yes (DSG, IVL,	9.6%	Increased	14%		Increased		Increased		516 nM	1%*	Rash	dose-dependent manner	9%	Toxicity at 1 μM [1]: Yes; DSG 3 nM ([2]; supplementary data): −6.20%; DSG 30 nM ([2]; supplementary data): 29%; activation at 0.1 µM ([2]; Homo sapiens, 72 h, 100 nM, supplementary data, Tox = toxic, read-out: DSG 100 nM): 47%; IVL 3 nM ([3]; supplementary data): 17%; IVL 30 nM ([3]; supplementary data): 30%; activation at 0.1 µM ([3]; Homo sapiens, 72 h, 100 nM, supplementary data, two runs, Tox = toxic): 48%; FLG 3 nM ([4]; supplementary data): 7%; FLG 30 nM ([4]; supplementary data): 20%; activation at 0.1 µM ([4]; Homo sapiens, 72 h, 100 nM, supplementary data, two runs, Tox = toxic, read-out: FLG 100 nM): 18%; Unbound concentration [6]: 5.16* nM
COc1cc2ncnc(Nc3ccc(F)c(Cl)c3)c2cc1NC(=O)/C=C/CN1CCCCC1 [Dacomitinib]	Yes	Decreased	Pro-differentiation	Unchanged^4	Pro-	Yes	Yes (DSG, IVL,	32%	Increased	31%		Increased		Increased		178 nM	0.24%	Rash	dose-dependent manner	25%	DSG 3 nM ([2]; supplementary data): 10.00%; DSG 30 nM ([2]; supplementary data): 54%; DSG 100 nM ([2]; 100 nM, supplementary data, Tox = toxic): Tox; IVL 3 nM ([3]; supplementary data): 15%; IVL 30 nM ([3]; supplementary data): 60%; IVL 100 nM [3, 17]: Tox; FLG 3 nM ([4]; supplementary data): 8%; FLG 30 nM ([4]; supplementary data): 31%; FLG 100 nM [4, 17]: Tox; Unbound concentration [6]: 0.42 nM and 0.425* nM
sodium dodecyl sulfoxide [SDS]																					increase of the TEWL rate ([8]; day 1): 98%; increase of the TEWL rate ([8]; day 2, afatinib 100 nM in the media): 77%; increase of the TEWL rate ([8]; day 5, afatinib 100 nM in the media): 58%; increase of the TEWL rate ([8]; day 7, afatinib 100 nM in the media): non-significant increase
CCN(CC)CCNC(=O)c1c(C)[nH]c(/C=C2\C(=O)Nc3ccc(F)cc32)c1C [Sunitinib]	No							15%		0%	24%		101%		27%	75 nM	5%*	Palmoplantar		-5%	micro-epidermis size / epidermal volume ([1]; concentration (afatinib 3-30 nM; pan-kinase inhibitors up to 100 nM)): no effect
